Test results published in PubChem BioAssay AID1996.
Converted amounts (≈) assume the structure as drawn.

Settings: buffer; pH 7.4; 200.0 µM
Work on `O=C(Nc1ccc(F)cc1F)NC1CCN(Cc2c(F)cccc2Cl)CC1` yielded a solubility kinetic of 5 µg/mL (≈ 12.6 µM).
Compound `Cc1[nH]c2ccc(C(=O)NCCN3CCCCCC3)cc2c1C` has a solubility kinetic of over 47 µg/mL.
In the case of `O=C(CSc1nc2ccccc2s1)Nc1ccc(C(=O)O)cc1`, the solubility kinetic is reported as over 51.7 µg/mL.
In the case of `CCOc1ccccc1NC(=O)Nc1cc(S(=O)(=O)N(C)C)ccc1C`, the solubility kinetic is reported as 0.6 µg/mL (≈ 1.59 µM).
Work on `COC(=O)c1ccccc1NS(=O)(=O)c1ccc(Cl)nc1` yielded a solubility kinetic of 48 µg/mL (≈ 147 µM).
`Cc1c(NC2=CC(=O)CC(C)(C)C2)c(=O)n(-c2ccccc2)n1C` showed a solubility kinetic of over 48.8 µg/mL.
With `CCCC(CCC(=O)Nc1cccc([N+](=O)[O-])c1)C(=O)O` (centres undefined) the solubility kinetic was over 44.1 µg/mL.
`O=C(Nc1ccc(N2CCOCC2)c(S(=O)(=O)Nc2ccccc2Cl)c1)c1ccc(F)cc1` gave a solubility kinetic of 1 µg/mL (≈ 2.04 µM).
In the case of `O=C(CCNC(=O)c1ccc([N+](=O)[O-])cc1)Nc1nccs1`, the solubility kinetic is reported as 12.9 µg/mL (≈ 40.3 µM).
With `Cc1cc(C)cc(-n2c(C)nc3cc(C(=O)O)ccc32)c1` the solubility kinetic was 35 µg/mL (≈ 125 µM).
For `S=C(Nc1ccccc1Cl)N1CCC(c2ccccc2)C1` (centres undefined), the solubility kinetic was 17.9 µg/mL (≈ 56.5 µM).
In the case of `CCOc1ccc(N2CC(C(=O)NCc3ccccc3)CC2=O)cc1` (centres undefined), the solubility kinetic is reported as 9.8 µg/mL (≈ 29 µM).
`COc1ccc(S(=O)(=O)Nc2cc(C)on2)cc1` gave a solubility kinetic of 36.1 µg/mL (≈ 135 µM).
`COc1ccc(NC(=O)CC(=O)Nc2ccc(OC)cc2)cc1` showed a solubility kinetic of 1.2 µg/mL (≈ 3.82 µM).
`CC(C)CCNC(=O)c1ccc2c(Cl)c3c(nc2c1)CCC3` gave a solubility kinetic of 0.5 µg/mL (≈ 1.58 µM).
`OC(CNCc1ccccc1C(F)(F)F)C(F)(F)F` (centres undefined) gave a solubility kinetic of over 43.1 µg/mL.
For `O=C(COC(=O)Cc1ccccc1F)Nc1cccc(F)c1`, the solubility kinetic was over 45.8 µg/mL.
Compound `Cc1ccc(C(C)C)cc1S(=O)(=O)NC1CC(C)(C)NC(C)(C)C1` has a solubility kinetic of 35.2 µg/mL (≈ 99.8 µM).
`O=C(CN1C(=O)S/C(=C\c2ccccn2)C1=O)Nc1ccc(F)cc1` showed a solubility kinetic of 0.9 µg/mL (≈ 2.52 µM).
In the case of `Cl.c1ccc(Cc2ccc(OCCn3ccnc3)cc2)cc1`, the solubility kinetic is reported as 41.3 µg/mL.
`CCOc1ccc(C(=O)N2CCn3c2nc2ccccc23)cc1` showed a solubility kinetic of 6.4 µg/mL (≈ 20.8 µM).
With `O=C(Nc1ccc(Cl)c(Cl)c1)c1cccnc1` the solubility kinetic was over 40.1 µg/mL.
Compound `Cc1[nH]c2ccccc2c1C(=O)COC(=O)c1ccccc1O` has a solubility kinetic of 4.6 µg/mL (≈ 14.9 µM).
With `CCC(C)C(=O)Nc1ccccc1N1CCN(c2ccc(F)cc2)CC1` (centres undefined) the solubility kinetic was 2.9 µg/mL (≈ 8.16 µM).
For `C=CCNC(=O)C(=O)NCCCN1CCOCC1`, the solubility kinetic was over 38.3 µg/mL.
Compound `Cc1ccc(NCCC(=O)c2cccc([N+](=O)[O-])c2)c(C)c1` has a solubility kinetic of 1.7 µg/mL (≈ 5.7 µM).
In the case of `COC(=O)c1ccccc1SCc1csc(C)n1`, the solubility kinetic is reported as 38.7 µg/mL (≈ 139 µM).
In the case of `Cc1ccc(OCC(=O)NC(C)c2ccccc2)cc1` (centres undefined), the solubility kinetic is reported as over 40.4 µg/mL.
Work on `COc1cc2ccccc2cc1C(=O)Nc1ccc(N2CCOCC2)cc1` yielded a solubility kinetic of 0.8 µg/mL (≈ 2.21 µM).
In the case of `Cc1ccc(C(=O)Oc2ccccc2N2CCOCC2)cc1`, the solubility kinetic is reported as 4.9 µg/mL (≈ 16.5 µM).
`Cc1cccc(C)c1NC(=O)C1C2C=CC(C2)C1C(=O)O` (centres undefined) gave a solubility kinetic of 39.7 µg/mL (≈ 139 µM).
With `COc1ccc(CNC(=O)c2c(O)c3ccccc3n(C)c2=O)cc1` the solubility kinetic was under 0.4 µg/mL.
`Cc1cc(=O)oc2cc(OC(C)C(=O)NC3CCCC3)ccc12` (centres undefined) showed a solubility kinetic of 44.6 µg/mL (≈ 141 µM).
For `Cc1ccc2[nH]c3c(c2c1)CCCC3NCCO.Cl` (centres undefined), the solubility kinetic was over 42.1 µg/mL.
With `Cc1ccc(S(=O)(=O)N2CCN(c3ncccn3)CC2)c(C)c1` the solubility kinetic was 1.8 µg/mL (≈ 5.41 µM).
Work on `COc1ccc(-n2c(=S)[nH]c3sc(-c4ccccc4)cc3c2=O)c(OC)c1` yielded a solubility kinetic of 1.7 µg/mL (≈ 4.29 µM).
`O=c1[nH]c(=S)n(C2CC2)c(O)c1C=NCC1CCCO1` (centres undefined) gave a solubility kinetic of over 44.3 µg/mL.
Compound `Cc1ccc(C(C)C)c(OCCNC(=O)c2ccccc2O)c1` has a solubility kinetic of under 0.7 µg/mL.
Work on `O=C(COC(=O)c1cccnc1Cl)c1ccc(OC(F)F)cc1` yielded a solubility kinetic of 51.2 µg/mL (≈ 150 µM).
With `CC1(C)CC(=O)C2=C(C1)Nc1ccccc1[S@]2=O` the solubility kinetic was over 39.2 µg/mL.
`Cc1ccc(C(=O)C2=C(O)C(=O)N(Cc3ccco3)C2c2cccc(Cl)c2)o1` (centres undefined) showed a solubility kinetic of over 59.7 µg/mL.
`Nc1ccc(S(=O)(=O)C(F)(F)F)cc1N` gave a solubility kinetic of over 36 µg/mL.
For `O=C(Nc1ccc(F)cc1)N1CCN(C(=O)C2CCCO2)CC1` (centres undefined), the solubility kinetic was over 48.2 µg/mL.
For `CCOC(=O)/C(C)=C1\NC(C)(C)Cc2ccccc21.I`, the solubility kinetic was 18.7 µg/mL.
For `Clc1cccc(Sc2ccc(-c3ccccn3)s2)c1`, the solubility kinetic was under 0.7 µg/mL.
With `Cc1ccc(CN2C(=O)C3CCCN3c3ncccc32)cc1` (centres undefined) the solubility kinetic was 33.3 µg/mL (≈ 114 µM).
Work on `OCCN(CCO)c1ccc2ccccc2c1` yielded a solubility kinetic of over 34.7 µg/mL.
With `COc1ccccc1OCCNC(=O)C1CCN(C(C)=O)CC1` the solubility kinetic was over 48.1 µg/mL.
In the case of `O=C(C1CCCCC1)N1CCc2[nH]c3ccc(F)cc3c2C1`, the solubility kinetic is reported as 0.4 µg/mL (≈ 1.33 µM).
Compound `O=C(CS(=O)(=O)c1ccccc1)NCc1ccc(Cl)cc1` has a solubility kinetic of 2.7 µg/mL (≈ 8.34 µM).
`Cc1ccccc1OC(C)C(=O)NCCCN1CCOCC1` (centres undefined) gave a solubility kinetic of 41.5 µg/mL (≈ 135 µM).
Compound `CSc1ncccc1C(=O)OCC(=O)N1CCc2ccccc21` has a solubility kinetic of 2 µg/mL (≈ 6.09 µM).
`CC1Cc2ccccc2N1S(=O)(=O)c1cccc(C(=O)OCC(=O)N2CCOCC2)c1` (centres undefined) showed a solubility kinetic of over 66.7 µg/mL.
`CNC(=O)COC(=O)COc1ccc2c(C)cc(=O)oc2c1` gave a solubility kinetic of over 45.8 µg/mL.
Work on `Cc1cc(C)nc(SCC(=O)c2ccc(Cl)cc2)n1` yielded a solubility kinetic of 33.5 µg/mL (≈ 114 µM).
In the case of `CC(C)(C)N(CC#CCC(O)(c1ccccc1)c1ccccc1)CCO`, the solubility kinetic is reported as 47.1 µg/mL (≈ 134 µM).
Compound `Cc1cccc(/N=C/C2=C(O)CC(C)(C)CC2=O)n1` has a solubility kinetic of over 38.7 µg/mL.
With `CN(C)c1ccc(Nc2cc(Cl)ncn2)cc1` the solubility kinetic was 9 µg/mL (≈ 36.2 µM).
For `C=CCON/C(CCC)=C1\C(=O)C(C(=O)OC)C(C)(C)CC1=NC` (centres undefined), the solubility kinetic was 40.4 µg/mL (≈ 120 µM).
